Test results published in PMC8287724, “Reducing Auditory Nerve Excitability by Acute Antagonism of Ca^2+-Permeable AMPA Receptors” (Frontiers in Synaptic Neuroscience, 2021).

Columns and labels:
[1] = system: ANF postsynaptic terminals; parameters: method as in Puel et al., 1994; conditions: chemical lesion, basal cochlear turn perfusion ref Puel et al., 1994; cited from earlier work
[2] = system: ribbon synapses and ANF dendrites in the inner spiral plexus; test: Apical cochlear perfusion of kainic acid, immunohistofluorescence and confocal microscopy; format: in vivo, guinea pig; conditions: 2 mM in artificial perilymph, apical perfusion of scala tympani
Protocol: Following cardiac perfusion of 4% PFA in 0.1 M phosphate buffer and cervical dislocation, the temporal bone was immediately harvested, and the cochlea was isolated. Each cochlea was post-fixed for 20 min at 4°C in a dish with 4% PFA, where a small fenestration was made in the round window, oval window, and the apex of each cochlea to gently flush with 1 mL of fixative. Each cochlea was then decalcified in 10% EDTA at room temperature for 6 h, exchanging EDTA every 2 h. The decalcified outer bone was removed to reveal the underlying cochlear spiral. Small pieces of cochlear turns were placed in buffer overnight at 4°C in Triton X-100 with donkey serum. […]
The method of apical intracochlear drug delivery has previously been well-detailed (Lichtenhan et al., [2016a]). […] Response waveforms were recorded immediately prior to apical drug perfusion to establish a baseline, throughout perfusion which took 6 min, and then immediately after perfusion, from a round window electrode. […]

[3] = system: cochlear afferent synapses; parameters: method as in earlier work; conditions: ref Robertson, 1983; Puel et al., 1998; Furman et al., 2013; Hickman et al., 2020; cited from earlier work

Row | Structure (SMILES) | effect of pre-perfusion on ANF terminal swelling [1] | other results
1 | NC(CCCP(=O)(O)O)C(=O)O [D-AP5] | not | –
2 | O=c1[nH]c2cc([N+](=O)[O-])c([N+](=O)[O-])cc2[nH]c1=O [DNQX] | prevented | –
3 | C=C(C)[C@H]1CN[C@H](C(=O)O)[C@H]1CC(=O)O [KA, kainic acid] | – | effect on innervation and ribbon synapses [2]: void of innervation in the ISP and ribbon synapse disintegration
4 | O=C(O)c1cc(=O)c2ccccc2[nH]1 [kynurenic acid] | – | effect on synapse loss and osmotic damage after synaptopathic noise exposure [3]: blocked
